Experimental data reported in patent US20230066268A1, “INDAZOLE DERIVATIVES AND METHODS OF USE THEREOF FOR THE TREATMENT OF HERPES VIRUSES” (Merck Sharp & Dohme LLC, priority 2019, published 2023).
Read-outs that look alike come from different tables or passages of the source.

Legend:
[1] = target: T1, Human cytomegalovirus DNA polymerase (Human cytomegalovirus, UniProt P08546); test: CMV polymerase assay (AlphaLISA); format: biochemical; settings: polymerase assay of Example 27, HCMV polymerase 0.2 nM
T1 construct: made in house; host or cells: SF21 insect cells (baculovirus vector)
Method: (§1) CMV and VZV Polymerase Assays
(§2) Human cytomegalovirus and varicella zoster virus DNA polymerases were expressed via baculovirus vector in SF21 cells and purified. Heterodimeric nucleic acid substrate used in the herpesvirus polymerase reactions were generated by annealing a 59-mer template to a 17-mer digoxigenin-labeled primer. Polymerase (HCMV final concentration of 0.2 nM; VZV final concentration of 0.4 nM) was combined with an inhibitor compound or DMSO in assay buffer (10 mM HEPES, pH 7.5, 25 mM KCl, 25 mM NaCl, 5 mM MgCl2, 5% glycerol, 0.67 mg/mL bovine serum albumin, and 1 mM tris(2-carboxyethyl)phosphine)), and this mixture was pre-incubated for 30 minutes at room temperature in 384-well microtiter plates. The polymerization reaction was initiated by the addition of template/primer substrate (final concentration: 1.6 nM) and dNTPs (final concentration: 24 nM dCTP, 24 nMdGTP, 16 nM dATP, 16 nM dTTP, and 0.8 nM biotin-dUTP). After a 60 minute incubation period at 37° C., the reactions were terminated using quench buffer (25 mM HEPES pH 7.5, 100 mM NaCl, 0.25% Tween-20, 12 mM EDTA, and 1 mg/mL bovine serum albumin). Incorporation of biotinylated UTP was detected with 2.5-5 μg/mL anti-DIG AlphaLISA acceptor beads and 5-10 μg/mL streptavidin AlphaLISA donor beads (PerkinElmer). Compound effects were normalized to the window defined by the controls (DMSO only and pre-quenched wells) and were fit using a 4-parameter algorithm to report an IC50.

[2] = tested on: HCMV Strain AD169 in MRC-5 cells; test: CMV cell assay; format: cell-based
Method: MRCS and Vero cells were obtained from ATCC and were maintained at 37° C./5% CO2/90% relative humidity in Minimal Essential Medium with 10% fetal bovine serum, […], 100 units/mL penicillin and 100 ug/mL streptomycin. Assay plates were prepared by dispensing compounds dissolved in DMSO into wells of 384 well collagen-coated plates using an ECHO acoustic dispenser. Each test compound was tested in a 10-point, serial 3-fold dilution. Controls included uninfected cells and infected cells treated only with DMSO. Assays were initiated by mixing selected cells, in suspension, with virus, and dispensing 50 μl/well infected cells to pre-plated compounds. Plates were incubated at 37° C./5% CO2/90% relative humidity for ˜72 hours to permit genomic replication, and infected cells were lysed by the addition of an equal volume of lysis buffer (10 mM Tris-HCl, pH8, 50 mM KCl, 2 mM MgCl2, 0.45% NP-40, 0.45% Tween-20, and 100 μg/mL proteinase K). An aliquot of the lysate was then transferred to a 384-well PCR plate and incubated at 56° C. for 1 hour, and then at 95° C. for 10 minutes. Levels of a viral gene were measured in 10 ul qPCR assays using TaqMan® Gene Expression Master Mix (Applied Biosystems) and an 7900HT Fast Real-Time PCR System with 384-Well Block Module. 7-point, serial 10-fold dilutions of a plasmid standard were run on each plate to generate a standard curve, and genome copies numbers were calculated by plotting experimental Ct onto linear regression of the standard curve. Compound effects on viral genome copy number were normalized to the window defined by the controls. Calculated % effects were fit using a 4-parameter algorithm, and EC50 was reported.
HCMV: Strain AD169 was assayed in MRC-5 cells and was used at 0.05-0.1 pfu/cell. The assays were performed in either growth media or in the same media with 50% fetal bovine serum. Primer-probe set was Thermo Fisher Assay ID=AIFATFK. HSV-1: Strain F was assayed in Vero or MRCS cells and was used at 0.0005-0.004 pfu/cell in growth medium. Primer-probe set was Thermo Fisher Assay ID=AIBJZIB. HSV-2: Strain G was assayed in Vero or MRCS cells and was used at 0.004-0.4 pfu/cell in growth medium. Primer-probe set was Thermo Fisher Assay ID=AICSXOJ.

[3] = tested on: HSV-1, strain F in Vero cells; test: HSV CPE assay, HSV-1; format: cell-based
Method: (§3) Vero cells were maintained at 37° C./5% CO2/90% relative humidity in Dulbecco's Modified Eagle's Medium with 10% fetal bovine serum, […], 100 units/mL penicillin and 100 ug/mL streptomycin. For this assay, Vero cells (maintained at 37° C./5% CO2/90% relative humidity in Dulbecco's Modified Eagle's Medium with 10% fetal bovine serum, […], 100 units/mL penicillin and 100 μg/mL streptomycin) were seeded in 96-well microtiter plates and incubated for about 15 hours. They were then infected with HSV-1, strain F, or with HSV-2, strain G, at a multiplicity of infection known to result in 85-95% loss of cell viability during the assays, in the same media with 2% fetal bovine serum. Test compounds were dissolved in DMSO, and 6 point serial 10-fold dilutions in DMSO were prepared. Test compounds were added to infected cells, and the plates were incubated at 37° C./5% CO2/90% relative humidity for 5 days. Each plate contains cell control wells (cells only), virus control wells (cells plus virus), drug colorimetric control wells (drug only), background control wells (media only) and experimental wells (drug plus cells plus virus). Cytoprotection was assessed by the addition of Celltiter®96 Reagent (Promega, Madison, Wis.), according to manufacturer's recommendations. % cytopathic effect (CPE) reduction was calculated and IC50 (concentration inhibition virus replication by 50%) was reported.

[4] = tested on: HSV-2, strain G in Vero cells; test: HSV CPE assay, HSV-2; format: cell-based
Method: as §3

[5] = target: T2, varicella zoster virus DNA polymerase (Varicella-zoster virus, UniProt P09252); test: VZV polymerase assay (AlphaLISA); format: biochemical; settings: polymerase assay of Example 27, VZV polymerase 0.4 nM
T2 construct: made in house; host or cells: SF21 insect cells (baculovirus vector)
Method: as §1, §2

[6] = Human betaherpesvirus 5, AD169, MRC5, footnote b: assay described in Example 25, read-out: CMV Cell^b (EC50)
[7] = Human alphaherpesvirus 1, 120 h, unstarred values: CPE assay of Example 25, Vero cells, 5 days, read-out: HSV1 Cell^b (EC50)
[8] = Human alphaherpesvirus 2, 120 h, unstarred values: CPE assay of Example 25, Vero cells, 5 days, read-out: HSV2 Cell^b CPE(EC50)
[9] = Human betaherpesvirus 5, AD169, MRC5, read-out: CMV Cell^b (EC50), footnote b: assay described in Example 25
[10] = Human alphaherpesvirus 1, Vero, 120 h, read-out: HSV1 Cell^b (EC50), unstarred values: CPE assay of Example 25, Vero cells, 5 days
[11] = Human alphaherpesvirus 2, Vero, 120 h, read-out: HSV2 Cell^b CPE(EC50), unstarred values: CPE assay of Example 25, Vero cells, 5 days
[12] = read-out: HSV1 Cell^b (EC50), unstarred values: CPE assay of Example 25, Vero cells, 5 days

T2 sequence (P09252 whole entry): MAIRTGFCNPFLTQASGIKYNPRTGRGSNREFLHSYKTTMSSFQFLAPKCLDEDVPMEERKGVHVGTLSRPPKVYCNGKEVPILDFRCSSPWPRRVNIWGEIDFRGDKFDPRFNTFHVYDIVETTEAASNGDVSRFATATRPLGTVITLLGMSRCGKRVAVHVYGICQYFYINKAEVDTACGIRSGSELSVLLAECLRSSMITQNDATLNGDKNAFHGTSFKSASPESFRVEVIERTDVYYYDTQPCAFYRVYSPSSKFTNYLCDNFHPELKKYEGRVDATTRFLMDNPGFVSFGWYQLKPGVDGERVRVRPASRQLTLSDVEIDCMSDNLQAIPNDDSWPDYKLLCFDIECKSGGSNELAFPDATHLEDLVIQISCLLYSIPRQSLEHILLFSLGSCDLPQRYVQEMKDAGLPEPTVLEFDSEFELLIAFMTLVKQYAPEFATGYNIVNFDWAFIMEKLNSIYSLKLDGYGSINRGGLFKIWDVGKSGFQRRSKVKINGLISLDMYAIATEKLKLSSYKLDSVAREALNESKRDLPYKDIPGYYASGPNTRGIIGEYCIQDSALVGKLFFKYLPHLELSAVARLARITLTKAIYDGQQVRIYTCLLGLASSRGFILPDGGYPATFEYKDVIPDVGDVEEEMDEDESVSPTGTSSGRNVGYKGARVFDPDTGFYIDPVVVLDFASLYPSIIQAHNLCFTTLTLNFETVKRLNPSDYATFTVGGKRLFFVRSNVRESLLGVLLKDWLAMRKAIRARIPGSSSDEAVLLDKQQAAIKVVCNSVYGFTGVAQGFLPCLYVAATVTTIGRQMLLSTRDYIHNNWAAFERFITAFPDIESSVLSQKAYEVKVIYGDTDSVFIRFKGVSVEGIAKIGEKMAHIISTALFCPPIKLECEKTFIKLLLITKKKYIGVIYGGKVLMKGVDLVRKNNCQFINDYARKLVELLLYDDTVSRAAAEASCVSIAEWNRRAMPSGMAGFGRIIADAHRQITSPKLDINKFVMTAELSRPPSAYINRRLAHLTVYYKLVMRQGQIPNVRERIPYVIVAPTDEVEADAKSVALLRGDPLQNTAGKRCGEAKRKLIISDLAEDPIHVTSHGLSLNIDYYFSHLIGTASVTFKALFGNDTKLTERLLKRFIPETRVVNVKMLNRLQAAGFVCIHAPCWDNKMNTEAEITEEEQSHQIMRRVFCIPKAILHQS
T1 sequence (P08546 whole entry): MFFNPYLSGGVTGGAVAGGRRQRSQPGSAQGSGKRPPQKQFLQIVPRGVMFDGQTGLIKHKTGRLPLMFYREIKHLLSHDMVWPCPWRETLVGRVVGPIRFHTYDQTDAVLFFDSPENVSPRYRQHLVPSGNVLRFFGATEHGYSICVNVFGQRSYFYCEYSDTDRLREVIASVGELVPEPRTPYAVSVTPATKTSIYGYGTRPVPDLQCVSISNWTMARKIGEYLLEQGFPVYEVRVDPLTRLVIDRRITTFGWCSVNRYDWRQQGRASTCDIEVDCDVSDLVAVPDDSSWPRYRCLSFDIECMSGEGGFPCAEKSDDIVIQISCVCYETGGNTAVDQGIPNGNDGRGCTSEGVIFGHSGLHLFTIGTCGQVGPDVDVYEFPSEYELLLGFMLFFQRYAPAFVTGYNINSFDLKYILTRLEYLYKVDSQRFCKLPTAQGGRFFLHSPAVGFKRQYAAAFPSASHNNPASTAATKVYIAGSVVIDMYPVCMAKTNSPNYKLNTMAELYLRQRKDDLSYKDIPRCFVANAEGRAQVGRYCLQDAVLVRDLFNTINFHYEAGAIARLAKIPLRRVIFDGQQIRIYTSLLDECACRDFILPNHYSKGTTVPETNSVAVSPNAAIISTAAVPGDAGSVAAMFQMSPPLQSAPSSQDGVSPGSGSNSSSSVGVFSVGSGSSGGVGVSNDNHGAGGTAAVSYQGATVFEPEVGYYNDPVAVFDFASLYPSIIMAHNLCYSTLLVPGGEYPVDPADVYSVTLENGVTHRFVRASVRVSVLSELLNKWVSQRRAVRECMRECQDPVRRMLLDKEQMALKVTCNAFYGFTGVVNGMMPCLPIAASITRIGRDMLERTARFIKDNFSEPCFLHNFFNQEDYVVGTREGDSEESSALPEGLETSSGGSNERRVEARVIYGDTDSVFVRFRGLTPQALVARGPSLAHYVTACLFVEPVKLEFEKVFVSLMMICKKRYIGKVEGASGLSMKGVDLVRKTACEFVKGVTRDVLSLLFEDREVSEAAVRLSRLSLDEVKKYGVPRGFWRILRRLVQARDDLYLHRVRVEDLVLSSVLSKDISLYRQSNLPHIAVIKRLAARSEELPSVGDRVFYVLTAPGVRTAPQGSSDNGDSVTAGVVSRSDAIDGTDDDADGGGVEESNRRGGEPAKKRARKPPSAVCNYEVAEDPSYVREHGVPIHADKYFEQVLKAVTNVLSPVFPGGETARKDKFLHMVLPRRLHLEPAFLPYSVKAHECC

SMILES	IC50 ([1]; read-out: CMV^a (IC50)) [nM]	EC50 [2, 6] [nM]	EC50 [3, 7] [nM]	EC50 [4, 8] [nM]	IC50 ([5]; read-out: VZV^a (IC50)) [nM]	other results
Cn1nc(C(=O)NCc2ccc(Cl)cc2)c2c3c(ccc21)C(N1CCOCC1)CC3 (single isomer, unassigned) [Compound 16]	260	970	1500	1600	38	
Cc1c(N2CCn3nncc3C2)ccc2c(C(=O)NCc3ccc(C#N)cc3)nn(CCC#N)c12 [Compound 1]						IC50 ([1]; CMV^a (IC50)): 53 nM; EC50 [2, 9]: 120 nM; EC50 [3, 10]: 1600 nM; EC50 [4, 11]: 2500 nM; IC50 ([5]; VZV^a (IC50)): 13 nM
Cc1c(N2CCn3nncc3C2)ccc2c(C(=O)NCc3ccc(Cl)cc3)nn(C3CCNC3)c12 (stereo not shown) [Compound 4]						IC50 ([1]; CMV^a (IC50)): 37 nM; EC50 [2, 9]: 85 nM; EC50 [3, 12]: 3100 nM; EC50 [4, 11]: 2100 nM; IC50 ([5]; VZV^a (IC50)): 16 nM
Cc1c(N2CCn3nncc3C2)ccc2c(C(=O)NCc3ccc(Cl)cc3)nn(CCOCCO)c12 [Compound 5]						IC50 ([1]; CMV^a (IC50)): 33 nM; EC50 [2, 9]: 97 nM; EC50 [3, 10]: > 40000 nM; EC50 [4, 11]: 610 nM; IC50 ([5]; VZV^a (IC50)): 12 nM
Cc1c(N2CCn3nncc3C2)ccc2c(C(=O)NCc3ccc(Cl)cc3)nn(C3CCNC3)c12 (stereo not shown) [Compound 6]						IC50 ([1]; CMV^a (IC50)): 45 nM; EC50 ([2]; read-out: CMV Cell^b (EC50), footnote b: assay described in Example 25): 110 nM; EC50 [3, 12]: > 40000 nM; EC50 ([4]; read-out: HSV2 Cell^b CPE(EC50), unstarred values: CPE assay of Example 25, Vero cells, 5 days): 3700 nM; IC50 ([5]; VZV^a (IC50)): 19 nM
O=C(NCc1ccc(Cl)cc1)c1n[nH]c2c(Cl)c(N3CCn4nncc4C3)ccc12 [Compound 7]	22	120	120	200	5.1	
Cc1cc(CN2CCCS(=O)(=O)CC2)cc2c(C(=O)NCc3ccc(C#N)cc3)nn(CCC#N)c12 [Compound 8]						IC50 ([1]; CMV^a (IC50)): 103 nM; EC50 [2, 9]: 150 nM; EC50 [3, 10]: 6400 nM; EC50 [4, 11]: 22000 nM; IC50 ([5]; VZV^a (IC50)): 62 nM
Cn1nncc1COc1ccc2c(C(=O)NCc3ccc(Cl)cc3)nn(C)c2c1Cl [Compound 10]	41	460	250	590	12	
N#Cc1c(N2CCn3nncc3C2)ccc2c(C(=O)NCc3ccc(Cl)cc3)n[nH]c12 [Compound 11]	23	93	480	700	3.7	
Cc1nnn(C)c1COc1ccc2c(C(=O)NCc3ccc(Cl)cc3)nn(C[C@@H](C)O)c2c1F [Compound 12]						IC50 ([1]; CMV^a (IC50)): 7.1 nM; EC50 [2, 9]: 300 nM; IC50 ([5]; VZV^a (IC50)): 1.6 nM
Cc1c(NCc2cnnn2C)ccc2c(C(=O)NCc3ccc(Cl)cc3)n[nH]c12 [Compound 13]	17	320			5	
Cn1nc(C(=O)NCc2ccc(Cl)cc2)c2ccc(N3CCn4nncc4C3)c(Br)c21 [Compound 15]	25	930	850	930	14	
Cc1c(CN2CCCS(=O)(=O)CC2)ccc2c1c(C(=O)NCc1ccc(Cl)cc1)nn2C [Compound 18]	120	2900	6300	6100	160	
Cc1c(CN2CCOCC2)cc(C)c2c1c(C(=O)NCc1ccc(Cl)cc1)nn2C [Compound 19]	280	6100	1800	5300	66	
Cn1nc(C(=O)NCc2ccc(Cl)cc2)c2c(O)c(CN3CCOCC3)ccc21 [Compound 20]	390	> 9900	> 40000	> 40000	66	
Cn1nc(C(=O)NCc2ccc(Cl)cc2)c2c(F)c(CN3CCOCC3)ccc21 [Compound 21]	480	7200	2200	3600	180	
Cc1c(CN2CCOCC2)cc2c(C(=O)NCc3ccc(Cl)cc3)nn(C)c2c1C [Compound 22]	580	4300				
Cn1nc(C(=O)NCc2ccc([N+](=O)[O-])cc2)c2cc(CN3CCOCC3)ccc21 [Compound 23]	990	12000			180	
Cn1nc(C(=O)NCc2ccc(Br)cc2)c2cc(CN3CCOCC3)ccc21 [Compound 24]	920	> 9900			220	
Cn1nc(C(=O)NCc2ccc(F)cc2)c2cc(CN3CCOCC3)ccc21 [Compound 26]	3300				740	
Cn1nc(C(=O)NCc2ccc(Cl)cc2)c2cnc(N3CCn4nncc4C3)cc21 [Compound 28]	810	7500			250	
Cn1nc(C(=O)NCc2ccc(Cl)cc2)c2cc(CN3CCOCC3)ncc21 [Compound 29]	2400				1600	
Cn1nc(C(=O)NCc2ccc(Cl)cc2)c2ccc(N3CCn4nncc4C3)nc21 [Compound 30]	1600				3000	
Cn1cc(C(=O)NCc2ccc(Cl)cc2)c2ccc(N3CCn4nncc4C3)cc21 [Compound 31]	190				120	
Cc1c(N2CCn3nncc3C2)ccc2c(C(=O)NCc3ccc(C#N)cc3)nn(C[C@H](C)NC(=O)C(C)C)c12 [Compound 32]						IC50 ([1]; CMV^a (IC50)): 4.2 nM; EC50 [2, 9]: 60 nM; EC50 [3, 10]: 14000 nM; EC50 [4, 11]: 13000 nM; IC50 ([5]; VZV^a (IC50)): 1.8 nM
